Reference: publication PMC10211317, “Identification of ARUK2002821 as an isoform-selective PI5P4Kα inhibitor” (RSC Medicinal Chemistry, 2023)

Columns and labels:
Assay in all cases: Premier Screen kinase panel (MRC PPU)
Assay type in all cases: biochemical
EPH-B3 = EPH-B3 (Homo sapiens, UniProt P54753); settings: EPH-B3 (Entrez EPHB3), read-out: Residual activity (%)
Protocol: (§1) room temperature with shaking for 30 minutes. The kinase concentration in the eluates was measured by qPCR.
(§2) using ADP-GloTM assay at the MRC PPU International Centre for Kinase Profiling, University of Dundee.
(§3) Conducted by MRC PPU International Centre
(§4) Conducted by MRC PPU International Centre for […]

MEKK1 = MEKK1 (Homo sapiens, UniProt Q13233); settings: MEKK1 (Entrez MAP3K1), read-out: Residual activity (%)
Protocol: as §1, §2, §3, §4

AMPK (hum) = AMPK (hum) (Homo sapiens, UniProt Q13131); settings: AMPK (hum) (Entrez PRKAA1 + PRKAB2 + PRKAG1), read-out: Residual activity (%)
Protocol: as §1, §2, §3, §4

MLK3 = MLK3 (Homo sapiens, UniProt Q16584); settings: MLK3 (Entrez MAP3K11), read-out: Residual activity (%)
Protocol: as §1, §2, §3, §4

MARK1 = MARK1 (Homo sapiens, UniProt Q9P0L2); settings: MARK1 (Entrez MARK1), read-out: Residual activity (%)
Protocol: as §1, §2, §3, §4

PKCγ = PKCγ (Homo sapiens, UniProt P05129); settings: read-out: Residual activity (%)
Protocol: as §1, §2, §3, §4

ERK1 = ERK1 (Homo sapiens, UniProt P27361); settings: ERK1 (Entrez MAPK3), read-out: Residual activity (%)
Protocol: as §1, §2, §3, §4

BRSK1 = BRSK1 (Homo sapiens, UniProt Q8TDC3); settings: BRSK1 (Entrez BRSK1), read-out: Residual activity (%)
Protocol: as §1, §2, §3, §4

PKBa = PKBa (Homo sapiens, UniProt P31749); settings: PKBa (Entrez AKT1), read-out: Residual activity (%)
Protocol: as §1, §2, §3, §4

EPH-B4 = EPH-B4 (Homo sapiens, UniProt P54760); settings: EPH-B4 (Entrez EPHB4), read-out: Residual activity (%)
Protocol: as §1, §2, §3, §4

BRK = BRK (Homo sapiens, UniProt Q13882); settings: BRK (Entrez PTK6), read-out: Residual activity (%)
Protocol: as §1, §2, §3, §4

p38b MAPK = p38b MAPK (Homo sapiens, UniProt Q15759); settings: p38b MAPK (Entrez MAPK11), read-out: Residual activity (%)
Protocol: as §1, §2, §3, §4

Aurora B = Aurora B (Homo sapiens, UniProt Q96GD4); settings: Aurora B (Entrez AURKB), read-out: Residual activity (%)
Protocol: as §1, §2, §3, §4

ERK5 = ERK5 (Homo sapiens, UniProt Q13164); settings: ERK5 (Entrez MAPK7), read-out: Residual activity (%)
Protocol: as §1, §2, §3, §4

NEK2a = NEK2a (Homo sapiens, UniProt P51955); settings: NEK2a (Entrez NEK2), read-out: Residual activity (%)
Protocol: as §1, §2, §3, §4

PDGFRA = PDGFRA (Homo sapiens, UniProt P16234); settings: PDGFRA (Entrez PDGFRA), read-out: Residual activity (%)
Protocol: as §1, §2, §3, §4

RSK2 = RSK2 (Homo sapiens, UniProt P51812); settings: RSK2 (Entrez RPS6KA3), read-out: Residual activity (%)
Protocol: as §1, §2, §3, §4

PIM2 = PIM2 (Homo sapiens, UniProt Q9P1W9); settings: PIM2 (Entrez PIM2), read-out: Residual activity (%)
Protocol: as §1, §2, §3, §4

IKKb = IKKb (Homo sapiens, UniProt O14920); settings: IKKb (Entrez IKBKB), read-out: Residual activity (%)
Protocol: as §1, §2, §3, §4

PAK5 = PAK5 (Homo sapiens, UniProt Q9P286); settings: PAK5 (Entrez PAK5), read-out: Residual activity (%)
Protocol: as §1, §2, §3, §4

MKK6 = MKK6 (Homo sapiens, UniProt P52564); settings: MKK6 (Entrez MAP2K6), read-out: Residual activity (%)
Protocol: as §1, §2, §3, §4

YES1 = YES1 (Homo sapiens, UniProt P07947); settings: YES1 (Entrez YES1), read-out: Residual activity (%)
Protocol: as §1, §2, §3, §4

HER4 = HER4 (Homo sapiens, UniProt Q15303); settings: HER4 (Entrez ERBB4), read-out: Residual activity (%)
Protocol: as §1, §2, §3, §4

p38d MAPK = p38d MAPK (Homo sapiens, UniProt O15264); settings: p38d MAPK (Entrez MAPK12), read-out: Residual activity (%)
Protocol: as §1, §2, §3, §4

PAK6 = PAK6 (Homo sapiens, UniProt Q9NQU5); settings: PAK6 (Entrez PAK6), read-out: Residual activity (%)
Protocol: as §1, §2, §3, §4

LKB1 = LKB1 (Homo sapiens, UniProt Q15831); settings: LKB1 (Entrez STK11), read-out: Residual activity (%)
Protocol: as §1, §2, §3, §4

PKCz = PKCz (Homo sapiens, UniProt Q05513); settings: PKCz (Entrez PRKCZ), read-out: Residual activity (%)
Protocol: as §1, §2, §3, §4

DYRK1A = DYRK1A (Homo sapiens, UniProt Q13627); settings: DYRK1A (Entrez DYRK1A), read-out: Residual activity (%)
Protocol: as §1, §2, §3, §4

SIK2 = SIK2 (Homo sapiens, UniProt Q9H0K1); settings: SIK2 (Entrez SIK2), read-out: Residual activity (%)
Protocol: as §1, §2, §3, §4

IRAK1 = IRAK1 (Homo sapiens, UniProt P51617); settings: IRAK1 (Entrez IRAK1), read-out: Residual activity (%)
Protocol: as §1, §2, §3, §4

CK1δ = CK1δ (Homo sapiens, UniProt P48730); settings: CK1δ (Entrez CSNK1G2), read-out: Residual activity (%)
Protocol: as §1, §2, §3, §4

Sequence of BRSK1 (Q8TDC3 whole entry): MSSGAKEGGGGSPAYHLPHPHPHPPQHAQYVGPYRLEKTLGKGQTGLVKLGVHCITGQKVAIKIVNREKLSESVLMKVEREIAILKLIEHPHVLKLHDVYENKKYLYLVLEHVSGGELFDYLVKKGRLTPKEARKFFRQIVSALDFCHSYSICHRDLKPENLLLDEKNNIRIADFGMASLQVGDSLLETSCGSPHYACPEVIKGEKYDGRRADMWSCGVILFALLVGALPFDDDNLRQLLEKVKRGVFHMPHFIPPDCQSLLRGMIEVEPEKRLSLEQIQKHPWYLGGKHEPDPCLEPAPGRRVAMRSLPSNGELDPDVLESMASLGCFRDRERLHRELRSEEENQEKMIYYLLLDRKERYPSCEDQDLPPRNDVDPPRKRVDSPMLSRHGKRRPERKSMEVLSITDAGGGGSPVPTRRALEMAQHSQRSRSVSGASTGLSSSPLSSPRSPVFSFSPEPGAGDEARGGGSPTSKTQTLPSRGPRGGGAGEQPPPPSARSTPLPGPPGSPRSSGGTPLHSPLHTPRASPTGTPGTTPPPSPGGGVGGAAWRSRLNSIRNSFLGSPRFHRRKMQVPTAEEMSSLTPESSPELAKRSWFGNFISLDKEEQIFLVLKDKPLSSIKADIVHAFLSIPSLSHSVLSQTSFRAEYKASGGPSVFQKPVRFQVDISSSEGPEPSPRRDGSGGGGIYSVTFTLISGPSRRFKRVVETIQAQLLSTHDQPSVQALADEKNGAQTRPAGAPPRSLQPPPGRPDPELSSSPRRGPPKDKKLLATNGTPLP
Sequence of PKBa (P31749 whole entry): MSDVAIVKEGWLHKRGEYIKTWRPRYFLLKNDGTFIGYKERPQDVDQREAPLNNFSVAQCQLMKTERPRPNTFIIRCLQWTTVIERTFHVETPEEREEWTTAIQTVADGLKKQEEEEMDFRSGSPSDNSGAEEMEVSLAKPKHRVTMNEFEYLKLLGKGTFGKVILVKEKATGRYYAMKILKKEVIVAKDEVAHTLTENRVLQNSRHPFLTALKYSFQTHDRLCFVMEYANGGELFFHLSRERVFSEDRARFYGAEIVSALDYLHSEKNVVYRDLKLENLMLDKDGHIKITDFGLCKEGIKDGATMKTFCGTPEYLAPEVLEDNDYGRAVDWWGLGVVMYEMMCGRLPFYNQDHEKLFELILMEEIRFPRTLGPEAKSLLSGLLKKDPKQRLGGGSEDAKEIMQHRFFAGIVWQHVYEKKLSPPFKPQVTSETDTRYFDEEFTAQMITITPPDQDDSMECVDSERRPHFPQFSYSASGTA
Sequence of IRAK1 (P51617 whole entry): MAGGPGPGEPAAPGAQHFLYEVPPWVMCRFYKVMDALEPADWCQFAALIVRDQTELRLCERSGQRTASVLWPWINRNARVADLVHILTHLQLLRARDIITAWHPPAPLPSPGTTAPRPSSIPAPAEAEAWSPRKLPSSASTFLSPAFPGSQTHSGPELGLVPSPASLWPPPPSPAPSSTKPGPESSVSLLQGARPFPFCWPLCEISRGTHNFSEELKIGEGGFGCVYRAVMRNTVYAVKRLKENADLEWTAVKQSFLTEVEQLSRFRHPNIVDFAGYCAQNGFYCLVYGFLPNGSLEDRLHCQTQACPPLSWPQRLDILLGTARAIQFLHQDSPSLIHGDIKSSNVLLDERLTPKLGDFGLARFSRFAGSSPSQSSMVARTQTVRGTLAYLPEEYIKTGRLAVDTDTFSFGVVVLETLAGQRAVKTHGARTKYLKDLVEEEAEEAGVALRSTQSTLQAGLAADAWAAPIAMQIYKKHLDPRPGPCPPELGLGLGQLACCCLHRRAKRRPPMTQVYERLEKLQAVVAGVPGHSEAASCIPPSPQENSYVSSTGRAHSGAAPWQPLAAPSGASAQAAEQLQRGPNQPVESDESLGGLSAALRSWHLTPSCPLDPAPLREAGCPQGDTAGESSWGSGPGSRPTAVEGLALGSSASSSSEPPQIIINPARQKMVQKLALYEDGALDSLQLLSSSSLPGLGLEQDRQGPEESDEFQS
Sequence of ERK1 (P27361 whole entry, species assumed): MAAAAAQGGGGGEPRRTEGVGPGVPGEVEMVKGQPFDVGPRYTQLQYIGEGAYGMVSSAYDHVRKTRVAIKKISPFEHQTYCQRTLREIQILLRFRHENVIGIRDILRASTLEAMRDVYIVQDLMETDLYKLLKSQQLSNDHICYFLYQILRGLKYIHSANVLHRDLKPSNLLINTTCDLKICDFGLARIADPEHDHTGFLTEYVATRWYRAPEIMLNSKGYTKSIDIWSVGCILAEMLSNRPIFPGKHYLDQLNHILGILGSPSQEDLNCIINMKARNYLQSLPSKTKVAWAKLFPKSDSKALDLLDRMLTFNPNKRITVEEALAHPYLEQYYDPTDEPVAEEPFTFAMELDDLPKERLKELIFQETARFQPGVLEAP
Sequence of p38b MAPK (Q15759 whole entry): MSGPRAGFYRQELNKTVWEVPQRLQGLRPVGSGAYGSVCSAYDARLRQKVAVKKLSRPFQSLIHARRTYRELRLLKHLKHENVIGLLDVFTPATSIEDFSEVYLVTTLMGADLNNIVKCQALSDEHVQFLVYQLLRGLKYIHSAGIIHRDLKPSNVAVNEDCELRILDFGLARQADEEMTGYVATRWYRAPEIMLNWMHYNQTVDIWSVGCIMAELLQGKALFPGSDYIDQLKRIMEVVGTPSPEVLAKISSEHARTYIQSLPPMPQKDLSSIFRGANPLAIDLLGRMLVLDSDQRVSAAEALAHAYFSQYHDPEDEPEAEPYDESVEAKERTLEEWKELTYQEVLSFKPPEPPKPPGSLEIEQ
Sequence of MKK6 (P52564 whole entry): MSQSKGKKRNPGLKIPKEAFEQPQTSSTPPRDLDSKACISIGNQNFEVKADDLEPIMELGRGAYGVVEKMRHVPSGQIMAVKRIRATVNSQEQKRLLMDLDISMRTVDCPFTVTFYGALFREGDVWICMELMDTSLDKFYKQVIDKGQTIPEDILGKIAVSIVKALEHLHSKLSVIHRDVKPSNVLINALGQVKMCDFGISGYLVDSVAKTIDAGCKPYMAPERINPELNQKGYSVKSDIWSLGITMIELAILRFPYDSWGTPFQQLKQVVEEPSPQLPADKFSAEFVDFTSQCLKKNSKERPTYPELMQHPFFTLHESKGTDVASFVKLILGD
Sequence of BRK (Q13882 whole entry, species assumed): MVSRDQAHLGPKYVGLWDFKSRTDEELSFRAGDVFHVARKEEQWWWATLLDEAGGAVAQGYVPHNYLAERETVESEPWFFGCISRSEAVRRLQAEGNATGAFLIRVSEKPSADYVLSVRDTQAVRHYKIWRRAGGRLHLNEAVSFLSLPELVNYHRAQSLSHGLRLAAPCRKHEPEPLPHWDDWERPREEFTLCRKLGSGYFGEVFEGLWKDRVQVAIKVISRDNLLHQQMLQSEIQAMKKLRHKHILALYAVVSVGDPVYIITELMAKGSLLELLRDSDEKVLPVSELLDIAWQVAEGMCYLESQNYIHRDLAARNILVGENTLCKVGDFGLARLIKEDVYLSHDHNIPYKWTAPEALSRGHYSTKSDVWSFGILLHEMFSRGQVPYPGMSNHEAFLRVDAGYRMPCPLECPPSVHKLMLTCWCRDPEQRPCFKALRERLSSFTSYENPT
Sequence of ERK5 (Q13164 whole entry): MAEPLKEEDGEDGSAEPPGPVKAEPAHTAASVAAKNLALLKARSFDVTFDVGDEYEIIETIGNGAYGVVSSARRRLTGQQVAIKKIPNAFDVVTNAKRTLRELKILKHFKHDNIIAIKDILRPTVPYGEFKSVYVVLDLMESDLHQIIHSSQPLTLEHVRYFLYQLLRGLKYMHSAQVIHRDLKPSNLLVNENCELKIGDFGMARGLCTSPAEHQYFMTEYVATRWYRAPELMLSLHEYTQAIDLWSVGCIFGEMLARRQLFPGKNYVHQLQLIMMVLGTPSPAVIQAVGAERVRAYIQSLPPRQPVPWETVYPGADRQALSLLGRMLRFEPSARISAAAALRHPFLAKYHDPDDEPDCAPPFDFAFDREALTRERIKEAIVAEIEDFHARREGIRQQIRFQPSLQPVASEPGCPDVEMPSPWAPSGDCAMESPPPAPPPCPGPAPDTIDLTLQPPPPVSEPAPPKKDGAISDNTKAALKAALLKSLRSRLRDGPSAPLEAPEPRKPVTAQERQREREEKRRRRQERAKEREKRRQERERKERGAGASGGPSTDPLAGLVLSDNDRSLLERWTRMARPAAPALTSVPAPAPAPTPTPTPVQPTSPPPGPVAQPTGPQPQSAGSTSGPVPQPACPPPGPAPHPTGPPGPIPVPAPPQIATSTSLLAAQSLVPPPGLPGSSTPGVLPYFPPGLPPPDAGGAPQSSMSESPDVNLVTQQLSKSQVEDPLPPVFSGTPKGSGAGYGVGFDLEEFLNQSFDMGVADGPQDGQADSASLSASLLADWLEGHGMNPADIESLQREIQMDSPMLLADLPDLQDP
Sequence of PIM2 (Q9P1W9 whole entry): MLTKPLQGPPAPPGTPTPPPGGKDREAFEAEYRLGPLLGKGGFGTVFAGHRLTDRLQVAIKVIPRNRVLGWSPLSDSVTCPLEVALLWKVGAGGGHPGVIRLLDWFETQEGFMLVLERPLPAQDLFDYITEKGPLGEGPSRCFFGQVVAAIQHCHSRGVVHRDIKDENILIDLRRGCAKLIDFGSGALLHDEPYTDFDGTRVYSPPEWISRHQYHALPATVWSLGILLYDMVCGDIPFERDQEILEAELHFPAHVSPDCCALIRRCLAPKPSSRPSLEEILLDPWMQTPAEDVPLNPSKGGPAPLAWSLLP
Sequence of p38d MAPK (O15264 whole entry): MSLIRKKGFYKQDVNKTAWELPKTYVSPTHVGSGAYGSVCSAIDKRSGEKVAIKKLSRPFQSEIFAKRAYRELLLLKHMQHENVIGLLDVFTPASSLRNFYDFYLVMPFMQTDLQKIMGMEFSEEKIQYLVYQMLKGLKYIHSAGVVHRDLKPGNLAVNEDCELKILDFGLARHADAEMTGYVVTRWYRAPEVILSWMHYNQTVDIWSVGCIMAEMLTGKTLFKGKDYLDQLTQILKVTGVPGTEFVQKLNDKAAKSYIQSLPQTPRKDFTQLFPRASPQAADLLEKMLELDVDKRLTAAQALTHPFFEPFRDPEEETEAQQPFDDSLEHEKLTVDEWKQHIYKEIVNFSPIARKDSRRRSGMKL

## COc1ccc(Nc2ncnc3c2ccn3-c2ccc(C)c(C)c2)cc1Cl [compound 36]
EPH-B3
  remaining activity at 1 µM: 79%
MEKK1
  remaining activity at 1 µM: 115%
AMPK (hum)
  remaining activity at 1 µM: 94%
MLK3
  remaining activity at 1 µM: 83%
MARK1
  remaining activity at 1 µM: 113%
PKCγ
  remaining activity at 1 µM: 107%
ERK1
  remaining activity at 1 µM: 62%
BRSK1
  remaining activity at 1 µM: 97%
PKBa
  remaining activity at 1 µM: 90%
EPH-B4
  remaining activity at 1 µM: 99%
BRK
  remaining activity at 1 µM: 126%
p38b MAPK
  remaining activity at 1 µM: 103%
Aurora B
  remaining activity at 1 µM: 110%
ERK5
  remaining activity at 1 µM: 95%
NEK2a
  remaining activity at 1 µM: 86%
PDGFRA
  remaining activity at 1 µM: 70%
RSK2
  remaining activity at 1 µM: 77%
PIM2
  remaining activity at 1 µM: 97%
IKKb
  remaining activity at 1 µM: 75%
PAK5
  remaining activity at 1 µM: 94%
MKK6
  remaining activity at 1 µM: 115%
YES1
  remaining activity at 1 µM: 98%
HER4
  remaining activity at 1 µM: 80%
p38d MAPK
  remaining activity at 1 µM: 128%
PAK6
  remaining activity at 1 µM: 90%
LKB1
  remaining activity at 1 µM: 101%
PKCz
  remaining activity at 1 µM: 111%
DYRK1A
  remaining activity at 1 µM: 89%
SIK2
  remaining activity at 1 µM: 109%
IRAK1
  remaining activity at 1 µM: 98%
CK1δ
  remaining activity at 1 µM: 92%
